Legend:
canarygrass = experiment: Test D preemergence; type: in vivo, Phalaris minor; details: scale 0 to 100
Outline: (§1)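 Whole-plant herbicidal activity; pre- and postemergence sprays. Soil: silt loam (pre); peat/vermiculite medium (post, 1–4 leaf). Assessment: 14–21 days, visual, 0 = no effect, 100 = complete control.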

lambsquarters = experiment: Test D preemergence; type: in vivo, Chenopodium album; details: scale 0 to 100
Outline: as §1

pigweed [1] = experiment: Test D preemergence; type: in vivo, Amaranthus retroflexus; details: scale 0 to 100
Outline: as §1

mustard, wild = experiment: Test D preemergence; type: in vivo, Sinapis arvensis; details: scale 0 to 100
Outline: as §1

bluegrass = experiment: Test D postemergence; type: in vivo, Poa annua; details: scale 0 to 100
Outline: as §1

field violet = experiment: Test D postemergence; type: in vivo, Viola arvensis; details: scale 0 to 100
Outline: as §1

deadnettle = experiment: Test D postemergence; type: in vivo, Lamium amplexicaule; details: scale 0 to 100
Outline: as §1

pigweed [2] = experiment: Test D postemergence; type: in vivo, Amaranthus retroflexus; details: scale 0 to 100
Outline: as §1

chamomile = experiment: Test D postemergence; type: in vivo, Matricaria inodora; details: scale 0 to 100
Outline: as §1

soybean = experiment: Test F preemergence; type: in vivo, Glycine max
Outline: (§2)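 Test chemicals in a non-phytotoxic solvent with surfactant were applied preemergence to seeds sown in silt loam, or postemergence to plants 2–18 cm tall (1- to 4-leaf stage). Plants were kept in a greenhouse for 14–21 days and then rated visually against controls on a 0 (no effect) to 100 (complete control) scale.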

wild poinsettia = experiment: Test F preemergence; type: in vivo, Euphorbia heterophylla
Outline: as §2

large crabgrass = experiment: Test F preemergence; type: in vivo, Digitaria sanguinalis
Outline: as §2

southern sandbur = experiment: Test F preemergence; type: in vivo, Cenchrus echinatus
Outline: as §2

nightshade = experiment: Test F preemergence; type: in vivo, Solanum ptycanthum
Outline: as §2

[3] = Preemergence, 31 g ai/ha, scale 0 to 100
[4] = Preemergence, 62 g ai/ha, scale 0 to 100
[5] = Preemergence, 125 g ai/ha, scale 0 to 100
[6] = preemergence, 8 g ai/ha, scale 0 to 100, 100 is complete control
[7] = preemergence, 16 g ai/ha, scale 0 to 100, 100 is complete control

CCCc1cc(C(=O)NCC(F)(F)F)nn1Cc1ccnc(C(F)(F)F)c1 [Compound 105]
Plant response rating, Canarygrass (canarygrass; 31 g ai/ha): 15
Plant response rating, Canarygrass (canarygrass; 62 g ai/ha): 60
Plant response rating, Canarygrass (canarygrass; 125 g ai/ha): 100
Plant response rating, Canarygrass (canarygrass; 250 g ai/ha): 100
Plant response rating, Lambsquarters (lambsquarters; 31 g ai/ha): 100
Plant response rating, Lambsquarters (lambsquarters; 62 g ai/ha): 100
Plant response rating, Lambsquarters (lambsquarters; 125 g ai/ha): 100
Plant response rating, Lambsquarters (lambsquarters; 250 g ai/ha): 100
Plant response rating, Pigweed (pigweed [1]; 31 g ai/ha): 100
Plant response rating, Pigweed (pigweed [1]; 62 g ai/ha): 100
Plant response rating, Pigweed (pigweed [1]; 125 g ai/ha): 100
Plant response rating, Pigweed (pigweed [1]; 250 g ai/ha): 100
Plant response rating, Mustard, Wild (mustard, wild; 31 g ai/ha): 100
Plant response rating, Mustard, Wild (mustard, wild; 62 g ai/ha): 100
Plant response rating, Mustard, Wild (mustard, wild; 125 g ai/ha): 100
Plant response rating, Mustard, Wild (mustard, wild; 250 g ai/ha): 100
Bluegrass plant response rating (bluegrass; Postemergence, 31 g ai/ha): 15
Bluegrass plant response rating (bluegrass; Postemergence, 125 g ai/ha): 40
Bluegrass plant response rating (bluegrass; Postemergence, 250 g ai/ha): 70
Bluegrass plant response rating (bluegrass; postemergence, 62 g ai/ha): 15
Field Violet plant response rating (field violet; Postemergence, 31 g ai/ha): 40
Field Violet plant response rating (field violet; Postemergence, 125 g ai/ha): 90
Field Violet plant response rating (field violet; Postemergence, 250 g ai/ha): 100
Field Violet plant response rating (field violet; postemergence, 62 g ai/ha): 75
Deadnettle plant response rating (deadnettle; Postemergence, 31 g ai/ha): 15
Deadnettle plant response rating (deadnettle; Postemergence, 125 g ai/ha): 55
Deadnettle plant response rating (deadnettle; Postemergence, 250 g ai/ha): 60
Deadnettle plant response rating (deadnettle; postemergence, 62 g ai/ha): 20
Pigweed plant response rating (pigweed [2]; Postemergence, 31 g ai/ha): 85
Pigweed plant response rating (pigweed [2]; Postemergence, 125 g ai/ha): 80
Pigweed plant response rating (pigweed [2]; Postemergence, 250 g ai/ha): 85
Pigweed plant response rating (pigweed [2]; postemergence, 62 g ai/ha): 75
Chamomile plant response rating (chamomile; Postemergence, 31 g ai/ha): 25
Chamomile plant response rating (chamomile; Postemergence, 125 g ai/ha): 65
Chamomile plant response rating (chamomile; Postemergence, 250 g ai/ha): 80
Chamomile plant response rating (chamomile; postemergence, 62 g ai/ha): 50
Plant response rating, Soybean (soybean; [3]): 100
Plant response rating, Soybean (soybean; [4]): 80
Plant response rating, Soybean (soybean; [5]): 100
Plant response rating, Soybean (soybean; [6]): 0
Plant response rating, Soybean (soybean; [7]): 0
Plant response rating, Wild Poinsettia (wild poinsettia; [3]): 5
Plant response rating, Wild Poinsettia (wild poinsettia; [4]): 60
Plant response rating, Wild Poinsettia (wild poinsettia; [5]): 95
Plant response rating, Wild Poinsettia (wild poinsettia; [6]): 0
Plant response rating, Wild Poinsettia (wild poinsettia; [7]): 0
Plant response rating, Large Crabgrass (large crabgrass; [3]): 98
Plant response rating, Large Crabgrass (large crabgrass; [4]): 100
Plant response rating, Large Crabgrass (large crabgrass; [5]): 100
Plant response rating, Large Crabgrass (large crabgrass; [6]): 65
Plant response rating, Large Crabgrass (large crabgrass; [7]): 70
Plant response rating, Southern Sandbur (southern sandbur; [3]): 10
Plant response rating, Southern Sandbur (southern sandbur; [4]): 75
Plant response rating, Southern Sandbur (southern sandbur; [5]): 95
Plant response rating, Southern Sandbur (southern sandbur; [6]): 0
Plant response rating, Southern Sandbur (southern sandbur; [7]): 0
Plant response rating, Nightshade (nightshade; [3]): 70
Plant response rating, Nightshade (nightshade; [4]): 100
Plant response rating, Nightshade (nightshade; [5]): 100
Plant response rating, Nightshade (nightshade; [6]): 0
Plant response rating, Nightshade (nightshade; [7]): 65

CCOc1cc(C(=O)NC(C)C)nn1Cc1ccnc(C(F)(F)F)c1 [Compound 188]
Plant response rating, Canarygrass (canarygrass; 31 g ai/ha): 55
Plant response rating, Canarygrass (canarygrass; 62 g ai/ha): 95
Plant response rating, Canarygrass (canarygrass; 125 g ai/ha): 100
Plant response rating, Canarygrass (canarygrass; 250 g ai/ha): 100
Plant response rating, Lambsquarters (lambsquarters; 62 g ai/ha): 100
Plant response rating, Lambsquarters (lambsquarters; 125 g ai/ha): 100
Plant response rating, Lambsquarters (lambsquarters; 250 g ai/ha): 100
Plant response rating, Pigweed (pigweed [1]; 62 g ai/ha): 100
Plant response rating, Pigweed (pigweed [1]; 125 g ai/ha): 100
Plant response rating, Pigweed (pigweed [1]; 250 g ai/ha): 100
Plant response rating, Mustard, Wild (mustard, wild; 62 g ai/ha): 100
Plant response rating, Mustard, Wild (mustard, wild; 125 g ai/ha): 100
Plant response rating, Mustard, Wild (mustard, wild; 250 g ai/ha): 100
Bluegrass plant response rating (bluegrass; Postemergence, 31 g ai/ha): 20
Bluegrass plant response rating (bluegrass; Postemergence, 125 g ai/ha): 30
Bluegrass plant response rating (bluegrass; Postemergence, 250 g ai/ha): 35
Bluegrass plant response rating (bluegrass; postemergence, 62 g ai/ha): 20
Field Violet plant response rating (field violet; Postemergence, 31 g ai/ha): 85
Field Violet plant response rating (field violet; Postemergence, 125 g ai/ha): 100
Field Violet plant response rating (field violet; Postemergence, 250 g ai/ha): 100
Field Violet plant response rating (field violet; postemergence, 62 g ai/ha): 85
Deadnettle plant response rating (deadnettle; Postemergence, 31 g ai/ha): 35
Deadnettle plant response rating (deadnettle; Postemergence, 125 g ai/ha): 45
Deadnettle plant response rating (deadnettle; Postemergence, 250 g ai/ha): 55
Deadnettle plant response rating (deadnettle; postemergence, 62 g ai/ha): 35
Pigweed plant response rating (pigweed [2]; Postemergence, 31 g ai/ha): 40
Pigweed plant response rating (pigweed [2]; Postemergence, 125 g ai/ha): 60
Pigweed plant response rating (pigweed [2]; Postemergence, 250 g ai/ha): 80
Pigweed plant response rating (pigweed [2]; postemergence, 62 g ai/ha): 40
Chamomile plant response rating (chamomile; Postemergence, 31 g ai/ha): 65
Chamomile plant response rating (chamomile; Postemergence, 125 g ai/ha): 70
Chamomile plant response rating (chamomile; Postemergence, 250 g ai/ha): 75
Chamomile plant response rating (chamomile; postemergence, 62 g ai/ha): 65
Plant response rating, Soybean (soybean; [4]): 30
Plant response rating, Soybean (soybean; [5]): 85
Plant response rating, Soybean (soybean; [6]): 0
Plant response rating, Wild Poinsettia (wild poinsettia; [4]): 100
Plant response rating, Wild Poinsettia (wild poinsettia; [5]): 100
Plant response rating, Wild Poinsettia (wild poinsettia; [6]): 10
Plant response rating, Large Crabgrass (large crabgrass; [4]): 100
Plant response rating, Large Crabgrass (large crabgrass; [5]): 100
Plant response rating, Large Crabgrass (large crabgrass; [6]): 90
Plant response rating, Large Crabgrass (large crabgrass; preemergence, scale 0 to 100, 100 is complete control): 100
Plant response rating, Southern Sandbur (southern sandbur; [4]): 65
Plant response rating, Southern Sandbur (southern sandbur; [5]): 100
Plant response rating, Southern Sandbur (southern sandbur; [6]): 0
Plant response rating, Nightshade (nightshade; Preemergence, 16 g ai/ha, scale 0 to 100): 98
Plant response rating, Nightshade (nightshade; [4]): 95
Plant response rating, Nightshade (nightshade; [5]): 98
Plant response rating, Nightshade (nightshade; [6]): 0
